The record followed here is ChEMBL document CHEMBL1145141, “New 2-bromomethyl-8-substituted-benzo[c]chromen-6-ones. Synthesis and biological properties” (Bioorg Med Chem Lett, 2005).

Molecules are shown by their SMILES. “And” between values parts separate entries of the source, which are not always exact repeats. Identical values can stand only once. Some results are limits rather than exact numbers.

Assay [1] has as its target Human immunodeficiency virus type 1 protease (Human immunodeficiency virus 1) (UniProt Q72874). As to the kind of experiment: Initial effective dose against protease of human immunodeficiency virus type 1.
Assay [2] has the same target. As to the kind of experiment: Effective dose against protease of human immunodeficiency virus type 1.
Assay [3] deals with Nitric oxide synthase 1 (Homo sapiens) (UniProt P29475). Briefly: Inhibitory activity against Neuronal nitric oxide synthase.
Chain of Nitric oxide synthase 1 (Homo sapiens) (P29475 whole entry): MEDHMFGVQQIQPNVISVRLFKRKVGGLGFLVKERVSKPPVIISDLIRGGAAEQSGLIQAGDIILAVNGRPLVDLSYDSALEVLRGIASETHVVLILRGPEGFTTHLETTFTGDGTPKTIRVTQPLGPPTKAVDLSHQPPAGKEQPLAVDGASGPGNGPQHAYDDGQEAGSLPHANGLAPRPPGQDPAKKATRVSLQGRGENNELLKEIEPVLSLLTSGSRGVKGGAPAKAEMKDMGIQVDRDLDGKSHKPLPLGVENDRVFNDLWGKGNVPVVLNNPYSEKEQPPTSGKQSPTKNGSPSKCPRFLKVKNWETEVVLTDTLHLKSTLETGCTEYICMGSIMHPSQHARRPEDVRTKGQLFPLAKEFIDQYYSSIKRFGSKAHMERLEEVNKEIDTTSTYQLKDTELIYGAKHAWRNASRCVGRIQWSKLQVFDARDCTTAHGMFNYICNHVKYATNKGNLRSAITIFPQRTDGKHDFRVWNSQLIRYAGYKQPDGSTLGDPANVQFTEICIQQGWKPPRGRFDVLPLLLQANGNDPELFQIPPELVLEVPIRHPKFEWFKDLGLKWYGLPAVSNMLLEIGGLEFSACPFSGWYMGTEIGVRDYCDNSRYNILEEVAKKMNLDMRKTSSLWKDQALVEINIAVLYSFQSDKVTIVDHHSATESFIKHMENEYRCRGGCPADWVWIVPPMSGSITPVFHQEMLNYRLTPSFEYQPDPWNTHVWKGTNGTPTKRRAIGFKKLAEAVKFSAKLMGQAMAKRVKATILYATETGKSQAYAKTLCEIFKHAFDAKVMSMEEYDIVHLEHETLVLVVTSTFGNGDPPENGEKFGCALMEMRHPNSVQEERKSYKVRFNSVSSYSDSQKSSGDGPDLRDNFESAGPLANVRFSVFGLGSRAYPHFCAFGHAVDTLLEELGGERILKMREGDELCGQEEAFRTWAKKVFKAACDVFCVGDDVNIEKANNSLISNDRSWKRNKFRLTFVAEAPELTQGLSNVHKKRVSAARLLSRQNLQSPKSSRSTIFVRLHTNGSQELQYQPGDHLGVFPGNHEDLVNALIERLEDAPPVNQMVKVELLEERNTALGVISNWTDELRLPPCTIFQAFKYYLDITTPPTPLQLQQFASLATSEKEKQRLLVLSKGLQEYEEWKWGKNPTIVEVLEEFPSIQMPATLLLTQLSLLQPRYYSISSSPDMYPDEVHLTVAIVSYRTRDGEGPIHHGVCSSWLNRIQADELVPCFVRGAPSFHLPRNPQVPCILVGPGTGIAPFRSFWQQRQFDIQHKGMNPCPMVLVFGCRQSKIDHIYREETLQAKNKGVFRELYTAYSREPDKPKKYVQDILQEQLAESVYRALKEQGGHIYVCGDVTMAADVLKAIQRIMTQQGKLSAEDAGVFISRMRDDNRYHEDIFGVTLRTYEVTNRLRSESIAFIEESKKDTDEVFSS
The target in assay [4] is Nitric oxide synthase, inducible (Homo sapiens) (UniProt P35228). Briefly: Inhibitory activity against Inducible nitric oxide synthase.
Chain of Nitric oxide synthase, inducible (Homo sapiens) (P35228 whole entry): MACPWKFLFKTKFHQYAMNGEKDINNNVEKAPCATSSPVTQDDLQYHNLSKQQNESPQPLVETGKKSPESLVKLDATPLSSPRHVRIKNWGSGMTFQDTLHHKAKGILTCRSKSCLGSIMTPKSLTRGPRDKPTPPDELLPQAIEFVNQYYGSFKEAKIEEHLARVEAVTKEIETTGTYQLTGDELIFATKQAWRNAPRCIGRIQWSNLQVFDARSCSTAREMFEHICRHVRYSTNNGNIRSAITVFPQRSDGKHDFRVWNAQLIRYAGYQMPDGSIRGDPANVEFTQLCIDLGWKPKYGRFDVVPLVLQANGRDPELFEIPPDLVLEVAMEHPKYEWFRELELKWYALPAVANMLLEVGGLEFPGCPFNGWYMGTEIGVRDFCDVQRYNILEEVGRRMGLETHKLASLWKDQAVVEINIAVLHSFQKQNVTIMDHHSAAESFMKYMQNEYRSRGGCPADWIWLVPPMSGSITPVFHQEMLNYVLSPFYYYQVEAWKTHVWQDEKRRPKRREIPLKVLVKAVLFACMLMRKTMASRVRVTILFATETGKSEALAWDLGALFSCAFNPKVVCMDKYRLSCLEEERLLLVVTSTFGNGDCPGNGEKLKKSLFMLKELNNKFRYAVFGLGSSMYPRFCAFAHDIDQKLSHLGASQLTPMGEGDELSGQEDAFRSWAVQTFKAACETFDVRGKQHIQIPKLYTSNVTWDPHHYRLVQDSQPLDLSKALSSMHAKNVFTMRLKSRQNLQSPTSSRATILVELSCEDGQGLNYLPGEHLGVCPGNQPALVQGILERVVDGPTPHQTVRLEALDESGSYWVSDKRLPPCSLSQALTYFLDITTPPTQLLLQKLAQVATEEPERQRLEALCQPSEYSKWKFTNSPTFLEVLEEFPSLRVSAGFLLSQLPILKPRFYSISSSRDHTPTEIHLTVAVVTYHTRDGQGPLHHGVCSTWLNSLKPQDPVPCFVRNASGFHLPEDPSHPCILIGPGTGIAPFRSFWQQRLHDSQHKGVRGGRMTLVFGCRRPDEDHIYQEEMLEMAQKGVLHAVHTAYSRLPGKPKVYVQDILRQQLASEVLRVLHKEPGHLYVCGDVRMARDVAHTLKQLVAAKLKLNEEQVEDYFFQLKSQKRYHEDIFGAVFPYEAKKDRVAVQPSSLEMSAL
The nature of assay [5]: Inhibitory concentration against Alpha-chymotrypsin.
Assay [6] deals with Human immunodeficiency virus type 1 protease (Human immunodeficiency virus 1, UniProt Q72874). As to the kind of experiment: Inhibitory concentration against HIV aspartyl protease.
In assay [7] the target is T1, Nitric oxide synthase 3 (Homo sapiens) (UniProt P29474).
T1 sequence (whole entry): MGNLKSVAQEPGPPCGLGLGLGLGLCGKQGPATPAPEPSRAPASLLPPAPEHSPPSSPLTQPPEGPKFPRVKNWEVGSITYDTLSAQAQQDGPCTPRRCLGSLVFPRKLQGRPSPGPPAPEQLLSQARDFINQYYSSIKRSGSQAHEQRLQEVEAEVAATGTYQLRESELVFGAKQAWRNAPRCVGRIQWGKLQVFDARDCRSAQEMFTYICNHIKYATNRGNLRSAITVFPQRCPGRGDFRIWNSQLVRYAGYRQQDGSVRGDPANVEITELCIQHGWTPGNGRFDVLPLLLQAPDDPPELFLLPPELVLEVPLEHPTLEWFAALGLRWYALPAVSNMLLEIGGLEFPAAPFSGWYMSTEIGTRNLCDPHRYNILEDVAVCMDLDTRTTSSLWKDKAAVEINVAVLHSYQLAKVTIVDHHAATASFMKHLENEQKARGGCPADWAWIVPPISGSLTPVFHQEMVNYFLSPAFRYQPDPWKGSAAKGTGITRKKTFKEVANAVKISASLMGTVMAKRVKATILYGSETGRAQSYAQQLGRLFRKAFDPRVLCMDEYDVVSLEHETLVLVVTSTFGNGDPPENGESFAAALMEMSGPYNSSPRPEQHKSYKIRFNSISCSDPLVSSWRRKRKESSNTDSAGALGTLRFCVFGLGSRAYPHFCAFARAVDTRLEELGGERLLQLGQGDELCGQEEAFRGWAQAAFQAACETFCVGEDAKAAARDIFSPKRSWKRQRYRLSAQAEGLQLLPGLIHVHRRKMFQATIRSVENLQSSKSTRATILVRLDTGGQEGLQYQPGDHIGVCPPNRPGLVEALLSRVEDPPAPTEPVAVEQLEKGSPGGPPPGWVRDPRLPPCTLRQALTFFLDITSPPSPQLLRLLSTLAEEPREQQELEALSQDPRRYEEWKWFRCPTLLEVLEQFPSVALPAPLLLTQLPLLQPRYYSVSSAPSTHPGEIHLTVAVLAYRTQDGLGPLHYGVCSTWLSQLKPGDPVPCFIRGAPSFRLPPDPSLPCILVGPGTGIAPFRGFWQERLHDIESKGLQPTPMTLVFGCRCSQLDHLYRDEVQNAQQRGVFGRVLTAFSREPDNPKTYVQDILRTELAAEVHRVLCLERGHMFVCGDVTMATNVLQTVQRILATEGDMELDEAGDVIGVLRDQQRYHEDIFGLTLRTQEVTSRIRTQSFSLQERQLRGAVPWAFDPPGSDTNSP
Briefly: Inhibitory activity against Endothelial nitric oxide synthase.

The target of a further assay is T2, Chymotrypsin-C (Homo sapiens, UniProt Q99895).
T2 sequence (Q99895 whole entry): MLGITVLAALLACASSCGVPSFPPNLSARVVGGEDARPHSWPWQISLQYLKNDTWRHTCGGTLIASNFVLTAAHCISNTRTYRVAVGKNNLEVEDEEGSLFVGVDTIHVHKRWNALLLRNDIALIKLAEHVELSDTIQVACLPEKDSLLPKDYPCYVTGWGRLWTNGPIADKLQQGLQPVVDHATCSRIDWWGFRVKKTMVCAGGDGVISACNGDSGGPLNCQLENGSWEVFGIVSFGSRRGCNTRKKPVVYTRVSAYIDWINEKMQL
As to the kind of experiment: Inhibitory concentration against Alpha-chymotrypsin; In active at 100 uM.

On to `CCC[C@@]1(CCc2ccccc2)CC(O)=C([C@H](CC)c2cccc(NS(=O)(=O)c3ccc(C(F)(F)F)cn3)c2)C(=O)O1`, for which, in assay [1], the ED50 amounted to 300 µM. This compound gave an ED90 in assay [2] of 0.1 µM.
With `O=c1oc2ccc(CBr)cc2c2ccc([N+](=O)[O-])cc12`, the values for the Inhibition in assay [3], in assay [4] and in assay [7] were 250 µM, 60 µM and 120 µM, respectively. Moreover, the IC50 (usually the midpoint of a concentration-inhibition curve) was > 100 µM in assay [5] and 10 µM in assay [6].
Turning to `Cc1ccc2oc(=O)c3cc([N+](=O)[O-])ccc3c2c1`, the IC50 in assay [5] is > 100 µM; in assay [6], 50 µM.
For the compound `O=[N+]([O-])c1cccc2cn[nH]c12`, the Inhibition is 15 µM in assay [3], 15 µM in assay [4] and 8 µM in assay [7].
As to `Cc1ccc2oc(=O)c3cc(N)ccc3c2c1`, the Inhibition in assay [3] stood at 900 µM; in assay [4], 150 µM; in assay [7] it was 600 µM. The IC50 is > 100 µM in assay [5], ~100 µM in assay [6] and “Inactive” at Chymotrypsin-C.
`Nc1ccc2c(c1)c(=O)oc1ccc(CBr)cc12`: the Inhibition was 200 µM in assay [3], 110 µM in assay [4] and 120 µM in assay [7]. Further, the IC50 in assay [5] was > 100 µM and ~100 µM; in assay [6], 50 µM.
